For nine compounds, AC50, IC50 and EC50 results are on record in ChEMBL document CHEMBL1201862, “PubChem BioAssay data set” (2004).

Assay [1] is described as follows: HepG2 cell cytotoxicity, dose response, cytotoxicity control, cherry-picked samples (AID 1159577). The class given is functional, cell-based.
Assay [2] in a line: HEK293 cell cytotoxicity, dose response, cytotoxicity control, cherry-picks, set 5 (AID 1053117). Type of assay: functional, cell-based.
Assay [3] is described as follows: HepG2 cell cytotoxicity, dose response, cytotoxicity control, cherry-picks, set 5 (AID 1053118). Type of assay: functional, cell-based.
Assay [4] can be described thus: miR-122 activators in hepatoma reporter cells, dose response, cell-based, Huh7 psiCHECK-miR122, Renilla luciferase, cherry-picked (AID 651956).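 Note: huh7 hepatoma cells stably carrying a psiCHECK-2 miR-122 sensor plasmid; renilla luciferase signal reporting endogenous miR-122 activity after 48 h compound exposure.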 The class given is functional.
A short description of assay [5]: P. falciparum Dd2 growth inhibitors, dose response, SYBR Green, cherry-picked samples (AID 1159567). Type of assay: functional, cell-based.
The nature of assay [6]: HEK293T cytotoxicity, dose response, cytotoxicity control for miR-122 modulator project, cell-based, inhibitor set, cherry-pick, set 2 (AID 720697). The class given is functional.
Assay [7] in a line: inhibitors of fibronectin matrix deposition, dose response, AH1F cells, Alexa488-FN fluorescence, cherry-picks (AID 1035475). Type of assay: functional, cell-based.
Assay [8] is described as follows: Counterscreen for inhibitors of Trypanosoma brucei methionyl tRNA synthetase (MetRS): Luminescence-based cell-based high throughput dose response assay to identify compounds that are cytotoxic to Jurkat human T lymphocyte cells. Type of assay: functional.
A short description of assay [9]: Late stage counterscreen for inhibitors of Trypanosoma brucei methionyl tRNA synthetase (MetRS): Luminescence-based cell-based high throughput dose response assay to identify compounds that are cytotoxic to Jurkat human T lymphocyte cells. Type of assay: functional. Background: The purpose of a counterscreen is to sort out artefacts and off-target activity.
Assay [10] addresses T1, Methionyl-tRNA synthetase, putative (Trypanosoma brucei brucei, UniProt Q38C91).
T1 sequence (Q38C91 whole entry): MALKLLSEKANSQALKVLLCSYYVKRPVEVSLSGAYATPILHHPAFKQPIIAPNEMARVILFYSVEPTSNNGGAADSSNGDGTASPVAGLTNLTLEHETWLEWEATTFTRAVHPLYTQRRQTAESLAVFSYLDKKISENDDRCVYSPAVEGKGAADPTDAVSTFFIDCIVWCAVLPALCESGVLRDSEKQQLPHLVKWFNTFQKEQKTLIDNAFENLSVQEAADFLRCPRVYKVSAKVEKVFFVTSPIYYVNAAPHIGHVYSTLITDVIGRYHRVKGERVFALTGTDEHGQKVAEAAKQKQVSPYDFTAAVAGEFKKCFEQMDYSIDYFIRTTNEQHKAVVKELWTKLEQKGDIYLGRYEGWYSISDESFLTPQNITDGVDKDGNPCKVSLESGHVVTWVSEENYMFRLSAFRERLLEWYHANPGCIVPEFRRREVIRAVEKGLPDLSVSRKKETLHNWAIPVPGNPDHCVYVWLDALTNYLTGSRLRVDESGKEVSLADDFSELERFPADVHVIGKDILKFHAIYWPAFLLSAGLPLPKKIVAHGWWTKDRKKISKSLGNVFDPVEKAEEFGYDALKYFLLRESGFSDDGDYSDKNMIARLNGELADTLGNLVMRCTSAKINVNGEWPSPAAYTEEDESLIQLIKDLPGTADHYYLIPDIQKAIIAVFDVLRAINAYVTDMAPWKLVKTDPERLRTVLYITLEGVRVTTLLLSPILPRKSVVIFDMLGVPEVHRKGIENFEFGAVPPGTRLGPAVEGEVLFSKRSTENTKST
Type of assay: functional, Trypanosoma brucei brucei strain 927/4 GUTat10.1.

The target of assay [11] is T1, Methionyl-tRNA synthetase, putative. Type of assay: functional, Trypanosoma brucei brucei strain 927/4 GUTat10.1. The source holds these as a separate data set.
For a further assay, the target named is Major prion protein (Homo sapiens, UniProt P04156). The class given is functional, cell-based.
Assay [12] is described as follows: cells.
For another assay, the target named is Kallikrein-7 (Homo sapiens, UniProt P49862). Briefly: Fluorescence Intensity-based biochemical primary high throughput dose response assay to identify activators of kallikrein-7 (K7) zymogen.
Assay [13] in a line: EDANS-DABCYL fluorescence interference, concentration series, dose response, artefact control for kallikrein-7 zymogen activator project, biochemical, fluorescence intensity, triplicate (AID 720493).
Assay [14] addresses T2, Zinc finger protein mex-5 (Caenorhabditis elegans, UniProt Q9XUB2).
T2 sequence (Q9XUB2 whole entry): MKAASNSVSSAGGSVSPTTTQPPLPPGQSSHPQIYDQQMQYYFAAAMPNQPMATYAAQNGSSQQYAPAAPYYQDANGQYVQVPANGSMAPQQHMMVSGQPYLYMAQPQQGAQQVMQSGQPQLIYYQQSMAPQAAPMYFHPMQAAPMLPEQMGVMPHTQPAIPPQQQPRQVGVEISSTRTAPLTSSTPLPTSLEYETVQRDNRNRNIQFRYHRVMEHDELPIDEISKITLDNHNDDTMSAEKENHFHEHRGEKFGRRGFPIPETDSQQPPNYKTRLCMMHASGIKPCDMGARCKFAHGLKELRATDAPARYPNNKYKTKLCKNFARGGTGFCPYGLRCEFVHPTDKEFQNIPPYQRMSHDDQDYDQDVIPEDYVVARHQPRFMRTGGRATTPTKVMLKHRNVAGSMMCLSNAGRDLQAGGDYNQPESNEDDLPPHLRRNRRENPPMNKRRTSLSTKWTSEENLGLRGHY
Put plainly: MEX-5/TCR-2 RNA interaction inhibitors, dose response, biochemical, C. elegans, fluorescence polarization (AID 1960).

Assay [15] concerns the target T3, RNA-binding protein pos-1 (Caenorhabditis elegans, UniProt G5EF15).
T3 sequence (G5EF15 whole entry): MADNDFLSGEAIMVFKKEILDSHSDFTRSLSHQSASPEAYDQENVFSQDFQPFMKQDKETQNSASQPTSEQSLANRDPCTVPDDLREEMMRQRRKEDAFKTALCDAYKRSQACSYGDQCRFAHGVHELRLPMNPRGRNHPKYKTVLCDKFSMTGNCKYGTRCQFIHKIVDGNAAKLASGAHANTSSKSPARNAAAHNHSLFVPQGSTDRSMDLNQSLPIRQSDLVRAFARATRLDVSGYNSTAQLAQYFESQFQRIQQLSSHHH
Put plainly: inhibitors of POS-1/mex-3 RNA binding, dose response, biochemical, fluorescence polarization (AID 1964).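 Note: purified POS-1 fused to maltose binding protein made in E. coli; potency of compounds blocking POS-1 binding to fluorescent RNA.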 Background: In fluorescence polarisation assays a small probe gives low polarisation when free and higher when bound to something large.

Assay [16] is described as follows: HEK293 cell cytotoxicity, dose response, cytotoxicity control, plate reader, cherry-picked samples (AID 743446). The class given is functional, cell-based.
A short description of assay [17]: A549 cell cytotoxicity, dose response, cytotoxicity control, plate reader, cherry-pick, antagonist series (AID 743412). Type of assay: functional, cell-based.
Assay [18] in a line: MC4R antagonists, dose response, counter-screen for LGR2 antagonist project, cell-based, plate reader, cherry pick (AID 743444).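 Note: transfected HEK 293 cells stimulated with alpha-MSH peptide; potency of inhibitors of the alpha-MSH evoked signal.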 The class given is functional.
Assay [19] can be described thus: LGR2 antagonists, dose response, cell-based, HEK293, CRE-luciferase reporter, cherry pick, set 2 (AID 743343).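 Note: transfected cells were stimulated with diluted bursicon conditioned medium after compound addition.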 Type of assay: functional. On the technique in general: A reporter such as luciferase makes a cellular process visible.
Assay [20] in a line: A375 melanoma cell cytotoxicity, dose response, counter-screen for MITF inhibitor project, CellTiter-Glo luminescence, dry powder, set 2 (AID 624489).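 Note: actives are compounds lowering A375 viability meaning general cytotoxicity.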 The class given is functional, cell-based. The following applies: A-375.
Assay [21] can be described thus: A375 melanoma cell viability loss, dose response, counter-screen for MITF inhibitor project, CellTiter-Glo luminescence, dry powder, set 4 (AID 624364).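 Note: A375 melanoma cells are MITF independent so this is a counter screen.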 Type of assay: functional, cell-based. To be noted: A-375.
The nature of assay [22]: cells. This is another data set of the same source.
In assay [23] the target is T4, DNA repair protein RAD52 homolog (Homo sapiens, UniProt P43351).
T4 sequence (P43351 whole entry): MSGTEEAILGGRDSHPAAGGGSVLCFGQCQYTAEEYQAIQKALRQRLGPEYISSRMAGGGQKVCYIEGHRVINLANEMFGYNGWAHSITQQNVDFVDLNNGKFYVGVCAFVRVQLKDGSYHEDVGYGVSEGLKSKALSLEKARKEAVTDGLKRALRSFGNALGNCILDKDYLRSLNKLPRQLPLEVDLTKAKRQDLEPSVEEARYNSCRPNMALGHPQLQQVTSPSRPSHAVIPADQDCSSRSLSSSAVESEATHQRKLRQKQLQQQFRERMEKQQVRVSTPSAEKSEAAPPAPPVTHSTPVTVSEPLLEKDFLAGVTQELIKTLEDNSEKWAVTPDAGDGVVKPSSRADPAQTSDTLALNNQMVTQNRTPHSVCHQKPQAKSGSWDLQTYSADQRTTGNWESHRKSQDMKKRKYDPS
The class given is functional, biochemical.

A short description of assay [24]: HepG2 cell cytotoxicity, dose response, cytotoxicity control, ATP luminescence, cherry-pick, set 6 (AID 1053125). The class given is functional, cell-based.
Assay [25] is described as follows: non-specific cell cytotoxicity, dose response, cytotoxicity control for PAX8 inhibitor project, plate reader, dry powder samples (AID 743021). Type of assay: functional, cell-based.
For a further assay, the target named is Paired box protein Pax-8 (Homo sapiens, UniProt Q06710). Put plainly: inhibitors of PAX8-driven TPO luciferase reporter, dose response, RMG-I cells, cherry-pick (AID 687027).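 Note: luciferase reporter driven by Pax8 target thyroperoxidase promoter measured by SteadyGlo luminescence.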 Type of assay: functional, cell-based.
Assay [26] can be described thus: inhibitors of PGC1a acetylation in cells, dose response, cell-based, cherry-picked samples (AID 720514).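 Note: potency may reflect raised or lowered acetylation signal.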 The class given is functional.
Assay [27] addresses T5, Hepatocyte nuclear factor 4-alpha (Homo sapiens, UniProt P41235).
T5 sequence (P41235 whole entry): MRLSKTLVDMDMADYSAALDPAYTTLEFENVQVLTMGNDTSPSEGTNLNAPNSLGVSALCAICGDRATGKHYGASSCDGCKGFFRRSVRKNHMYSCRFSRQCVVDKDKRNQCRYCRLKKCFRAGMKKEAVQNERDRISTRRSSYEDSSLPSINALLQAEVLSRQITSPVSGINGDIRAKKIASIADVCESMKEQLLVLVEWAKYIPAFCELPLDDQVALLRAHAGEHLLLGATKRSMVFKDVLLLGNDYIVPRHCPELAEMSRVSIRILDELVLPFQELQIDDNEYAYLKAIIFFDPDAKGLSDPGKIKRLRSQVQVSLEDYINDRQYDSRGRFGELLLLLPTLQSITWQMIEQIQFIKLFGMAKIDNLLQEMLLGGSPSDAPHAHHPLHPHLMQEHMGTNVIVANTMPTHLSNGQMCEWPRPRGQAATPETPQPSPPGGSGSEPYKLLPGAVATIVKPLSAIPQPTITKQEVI
The class given is functional, cell-based.

For assay [28], the target named is 1-phosphatidylinositol 4,5-bisphosphate phosphodiesterase gamma-1 (Homo sapiens, UniProt P19174). Put plainly: Counterscreen for inhibitors of phospholipase C isozymes (PLC-B3): Fluorescence-based biochemical high throughput dose response assay to identify inhibitors of phospholipase C isozymes (PLC-gamma1).
Assay [29] has as its target 1-phosphatidylinositol 4,5-bisphosphate phosphodiesterase beta-3 (Homo sapiens, UniProt Q01970). Briefly: Fluorescence-based biochemical high throughput dose response assay to identify inhibitors of phospholipase C isozymes (PLC-B3).

The AC50 is the midpoint of the concentration-response curve, whichever way the signal moves. For orientation: IC50 means the concentration that inhibits the measured activity by half. In general, EC50 refers to the midpoint of the concentration-response curve.

Calls of active or inactive are those of the source.

For `CO[C@H]1CN(C)C(=O)c2cc(NC(=O)Nc3ccc(Cl)c(Cl)c3)ccc2OC[C@H](C)NC[C@H]1C`, the AC50 was 12.1 µM (active) in [1]; 26.6 µM (active) in assay [2]; 18.5 µM (active) in assay [3]; 23.2 µM (active) in [4]; 10.4 µM (active) in assay [5]; 18.1 µM (active) in assay [6]. For the same compound, the AC50 in [7] was > 70 µM (inactive).
In the case of `CN1CC(=O)N2C(c3cccc([N+](=O)[O-])c3)c3[nH]c4ccccc4c3C[C@H]2C1=O` (some centres not stated), the IC50 is 83.3 µM (inactive) in assay [8], > 83.3 µM (inactive) in assay [9], 0.393 µM (active) in assay [10] and 0.798 µM (active) in assay [11].
As for `CC(=O)Nc1ccc2nc(C)c(CC=C(Cl)Cl)c(O)c2c1`, the IC50 on Major prion protein was 10.2 µM (inactive); in the assay “cells [12]”, > 138 µM (inactive).
`Cc1ccc(/C=C2\Oc3c(ccc(O)c3CN3CCN(C)CC3)C2=O)cc1`: the EC50 at Kallikrein-7 was 12.5 µM (inactive); in assay [13], > 7.73 µM (active); in assay [14] it was 153 µM (active); in [15] it was 43.7 µM (active).
Consider `N#C[C@@H]1[C@H](c2ccc(C#Cc3ccccc3F)cc2)[C@@H](CO)N1C(=O)C1CC1`, for which the half-maximal activity concentration (AC50) is 33.5 µM (active) in [16], 24.9 µM (active) in assay [17], 5.44 µM (active) in assay [18] and 5.15 µM (active) in assay [19].
As to `O=C1C(NS(=O)(=O)c2cccs2)=C(N2CCOCC2)C(=O)c2ccccc21`, the AC50 in [20] and in assay [21] was > 70 µM (inactive) in each case.
`Cc1cccn2c(=O)c3cc(C(N)=S)c(=N)n(CCCN4CCOCC4)c3nc12`: the concentration at half-maximal activity (AC50) in “cells [22]” is 5.15 µM (active); in [23] it was 3.43 µM (active); in [24], > 52 µM (inactive).
With `C#CCN(C[C@@H]1[C@@H](OC(=O)NCCCCCC)[C@@H](OC(=O)NCCCCCC)Cn2c(=O)ccc(=O)n21)S(=O)(=O)c1ccc(C)cc1`, the results for the concentration at half-maximal activity (AC50) (in assay [25]; at Paired box protein Pax-8; in assay [26]) were 38.3 µM (active), 4.18 µM (active) and 4.88 µM (active), respectively. In addition, the IC50 in assay [27] is 34.7 µM (inactive).
With `O=C(CCNc1cc(Cl)cc(Cl)c1)c1cccs1`, the IC50 in [28] and in assay [29] was > 123 µM (inactive) in each case.
